# Where “and” joins values, the source holds several entries; their conditions need not be identical. Equal entries are not always repeated. Where two headings read alike, the source gives them in different places. Marks after values point to notes of the source that are not given here.
# Assays:
# [1] = Pharmacokinetic study: volunteers orally received 60 mL of guaco syrup spiked with 1500 mg of COU, plasma by HPLC-MS/MS; type: in vivo, human
# Excerpt: The weight ranged from 63 to 88 kg and the height from 1.65 to 1.80 m. The volunteers were submitted to the medical consultations and clinical analyses before their participation in the study. Only healthy volunteers (normal values of blood pressure and renal, hepatic, biochemical and hematological parameters) were eligible to participate in the study. […] The volunteers were informed about all the procedures and possible risks related to the study. All the volunteers provided written informed consent to participate in the study. […] All the volunteers fasted for 8 h prior to the administration of guaco syrup and blood collection. […] The anticoagulant used was tetrasodium edetate. […] The pharmacokinetic analysis was performed using a non-compartmental model, considering an extravascular administration route and using WinNonlin Professional software, version 5.3. The relationships among the areas under the curves (r areas = AUC0-t/AUC0-inf), were used to confirm the suitability of the experimental design. […] All the frozen (-40°C) human plasma samples from the volunteers were thawed at room temperature, and a 200 μL aliquot was transferred into 2 mL plastic centrifuge tubes. The analytes were extracted as follows. The 200 μL aliquots of thawed samples were spiked with 50 μL of acetonitrile/water (70:30 v/v) and 50 μL of the working IS solution to obtain a final concentration of 500 ng/mL of 6-methylcoumarin. The spiked samples were vortexed for 2 min, and a 1.5 mL aliquot of TBME was added to the tube. The samples were vortexed for 2 min and then submitted to centrifugation for 10 min (14000 rpm, -5°C). A 1.2 mL aliquot of each sample supernatant was transferred to a new plastic centrifuge tube, and TBME was evaporated at 40°C in a sample concentrator (CentriVap Labconco, Kansas City, EUA). The remaining samples were resuspended in 200 μL of acetonitrile/water (70:30 v/v) using a vortex mixer for 3 min. The 200 μL aliquots of the thawed samples were spiked with 50 μL of acetonitrile/water (70:30 v/v) and 50 μL of the working IS solution to obtain a final concentration of 500 ng/mL of prednisone (IS) and 1000 ng/mL of isoferulic acid (IS). The spiked samples were vortexed for 2 min, and a 1.5 mL of acetonitrile was added to the tube. The samples were vortexed for 2 min and then were submitted to centrifugation for 10 min (14000 rpm, -5°C). Each sample supernatant was transferred to a new plastic centrifuge tube, and acetonitrile was evaporated in a sample concentrator (40°C). The samples were resuspended in 200 μL of acetonitrile/water (70:30 v/v) using a vortex mixer for 3 min. […] The HPLC was connected to a CTC Sample Manager (Model 2777, Waters Corporation, Milford, USA) that was operated at room temperature. Acetonitrile and methanol were used as wash solvents. The HPLC system was coupled to an Applied Biosystems MDS Sciex API 3200 Triple Quadrupole Mass Spectrometer (Toronto, Canada), equipped with a Harvard 22 Dual Model syringe pump (Harvard Apparatus, South Natick, USA) and an electrospray ionization (ESI) source. […] For the positive ion mode, the mobile phase consisted of acetonitrile/water/formic acid (70:30:0.05 v/v/v) at an elution rate of 200 μL/min in an isocratic system. For the negative ion mode, the mobile phase consisted of a gradient of water (A) and acetonitrile/water 95:5 v/v (B), both containing 1 mM ammonium formate. The flow rate was maintained at 400 μL/min, and the gradient profile was as follows: t0-1.0min: […] A = 70%; and t5.1-9.0min: A = 70%. […] The injection volume was 20 μL, and the column temperature was maintained at 25°C for positive ion mode and at 35°C for negative ion mode. Data acquisition was performed with the MS Workstation by Analyst software, version 1.4.2 (ABSciex). Quantification was performed in Multiple Reaction Monitoring (MRM) mode, maintaining the dwell time at 300 and 400 ms for the positive and negative ion modes, respectively. […]
# [2] = Stability of stock solutions and working standard solutions; type: physicochemical; conditions: for Mean recovery: n = 8, ± SD
# Description: The stability of the stock solutions (1 mg/mL of each analyte and ISs) was evaluated after 30 days of storage in a refrigerator (4°C, amber bottles). The stored solutions were diluted with acetonitrile/water (70:30 v/v) to obtain the same concentration levels as the short-term stability assay. The stability of the stock solutions was evaluated by comparing the mean recovery of the analytes and IS obtained from stored samples to the mean values obtained with freshly prepared samples, at the same concentration levels. The stability of the working standard solutions was assessed using a procedure similar to that described for stock solution stability. […]
# [3] = Stability in human plasma: short-term, freeze-thaw and long-term; type: in vitro ADME; conditions: for Mean recovery: n = 8, ± SD
# Description: The samples were vortexed for 2 min and then were kept at room temperature for 8 h. Afterward, the samples were spiked with 50 μL of IS solution and were vortexed (2 min) and submitted to the extraction procedures. The short-term stability was evaluated by comparing the mean recovery of the analytes and the IS obtained from stored samples with the mean values obtained with freshly prepared samples, at same concentration levels.
# (§1) Freeze-thawed, post-preparative and long-term stability assay samples were prepared and evaluated similar to the short-term stability samples. However, the freeze thawing assay was assessed after undergoing three freeze-thaw cycles (one freeze-thaw cycle per day on three consecutive days) and post-preparative assay, maintaining the extracted samples for 24 hours in the Sample Manager (20°C, transparent vials). The long-term stability of human plasma stored at -40°C was assessed at the end of the study (60 days).
# [4] = Post-preparative stability of extracted samples; type: physicochemical; conditions: for Mean recovery: post-preparative: extracted samples 24 hours at 20°C, n = 8, ± SD; for RE: post-preparative
# Description: as §1
# [5] = both sexes, human, plasma, po, 1500 mg, human plasma, 60 mL guaco syrup spiked with 1500 mg coumarin, n = 5, mean ± S.D.
# [6] = both sexes, human, plasma, po, 1500 mg, human plasma, 60 mL guaco syrup spiked with 1500 mg coumarin, n = 5, mean ± S.D., read-out: Cmax
# [7] = both sexes, human plasma, oral, 60 mL guaco syrup spiked with 1500 mg coumarin, n = 5, mean ± S.D.
# [8] = human plasma, oral, 60 mL guaco syrup spiked with 1500 mg coumarin, n = 5, mean ± S.D.
# [9] = 8 h at room temperature, high level (Coumarin 1250.0, 7-hydroxycoumarin 750.0, o-coumaric acid 750.0, Kaurenoic acid 500.0 ng/mL)
# [10] = 8 h at room temperature, high level, stored vs freshly prepared
# [11] = 8 h at room temperature, low level (Coumarin 50.0, 7-hydroxycoumarin 12.5, o-coumaric acid 25.0, Kaurenoic acid 10.0 ng/mL)
# [12] = 8 h at room temperature, low level, stored vs freshly prepared
# [13] = 30 days at 4 °C (stock solutions), high level (1250.0, 750.0, 750.0, 500.0 ng/mL)
# [14] = 30 days at 4 °C (stock solutions), low level (50.0, 12.5, 25.0, 10.0 ng/mL)
# [15] = Long-term: plasma at -40°C, 60 days, high level (1250.0, 750.0, 750.0, 500.0 ng/mL)
# [16] = Long-term: plasma at -40°C, 60 days, low level (50.0, 12.5, 25.0, 10.0 ng/mL)
# [17] = Short-term: plasma at room temperature for 8 h, high level (1250.0, 750.0, 750.0, 500.0 ng/mL)
# [18] = Short-term: plasma at room temperature for 8 h, low level (50.0, 12.5, 25.0, 10.0 ng/mL)
# [19] = three freeze–thaw cycles, plasma, high level (1250.0, 750.0, 750.0, 500.0 ng/mL)
# [20] = three freeze–thaw cycles, plasma, low level (50.0, 12.5, 25.0, 10.0 ng/mL)
# [21] = high level (1250.0, 750.0, 750.0, 500.0 ng/mL)
# [22] = low level (50.0, 12.5, 25.0, 10.0 ng/mL)
SMILES,"half-life [1, 5]","Cmax [1, 6]","AUC(0-inf) [1, 7]","AUC(0-t) [1, 7]","Tmax [1, 7]","r areas (AUC0-t/AUC0-inf) [1, 8]","Mean recovery [2, 9]","RE [2, 10]","Mean recovery [2, 11]","RE [2, 12]","Mean recovery [2, 13]","Mean recovery [2, 14]","RE ([2]; 30 days at 4 °C, high level)","RE ([2]; 30 days at 4 °C, low level)","Mean recovery [3, 15]","Mean recovery [3, 16]","RE ([3]; Long-term, low level)","Mean recovery [3, 17]","Mean recovery [3, 18]","RE ([3]; Short-term, high level)",further results
"O=c1ccc2ccc(O)cc2o1 [7-HCOU, 7-hydroxycoumarin]",~60 min,85 ± 40.1 ng/mL,134 ± 58 ng·h/mL,126 ± 54 ng·h/mL,1.4 ± 0.68 h,0.95 ± 0.05,757.9 ± 5.6 ng/mL,1.06%,11.6 ± 0.6 ng/mL,-7.41%,791.8 ± 60.5 ng/mL,11.4 ± 0.9 ng/mL,5.57%,-8.02%,674.4 ± 69.7 ng/mL,11.7 ± 1.1 ng/mL,-6.19%,738.1 ± 8.4 ng/mL,11.7 ± 0.6 ng/mL,-1.59%,"Kel (elimination rate constant) [1, 8]: 0.91 ± 0.59 h⁻¹; T1/2 [1, 8]: 1.16 ± 0.82 ^a h; RE ([3]; Long-term, high level): -10.08%; RE ([3]; Short-term, low level): -6.24%; RE ([3]; freeze–thaw cycles, high level): -4.69%; RE ([3]; freeze–thaw cycles, low level): -7.29%; Mean recovery [3, 19]: 714.8 ± 24.9 ng/mL; Mean recovery [3, 20]: 11.6 ± 0.6 ng/mL; Mean recovery [4, 21]: 776.4 ± 18.7 ng/mL; Mean recovery [4, 22]: 11.5 ± 0.7 ng/mL; RE ([4]; high level): 3.52%; RE ([4]; low level): -7.73%"
"O=c1ccc2ccccc2o1 [COU, 1,2 benzopyrone]",~240 min,735 ng/mL,1460 ± 547 ng·h/mL,1340 ± 515 ng·h/mL,0.93 ± 0.57 h,0.92 ± 0.03,1293.1 ± 30.5 ng/mL,3.45%,54.5 ± 3.2 ng/mL,8.94%,1173.4 ± 67.9 ng/mL,56.1 ± 2.3 ng/mL,-6.13%,12.27%,1265.7 ± 99.2 ng/mL,45.1 ± 3.6 ng/mL,-9.71%,1205.5 ± 31.5 ng/mL,52.4 ± 1.7 ng/mL,-3.56%,"clearance ([1]; both sexes, human, plasma, oral, 1500 mg, Cl/f multiplied by the bioavailability 0.034 of ref 32, read-out: estimated clearance (Cl = 1148.0 x 0.034) (converted)): 651 mL/min; Vd ([1]; both sexes, human, plasma, oral, 1500 mg, Vd/f multiplied by the bioavailability 0.034 of ref 32, read-out: estimated volume of distribution (Vd = 6733.0 x 0.034)): 229 L; Vd/F ([1]; both sexes, human plasma, oral, 60 mL guaco syrup spiked with 1500 mg coumarin, n = 5, mean ± S.D., read-out: Vd/f (apparent volume of distribution)): 6730 ± 3280 L; Cl/f (apparent clearance) [1, 8]: 1148.0 L/h and 1148.0 ± 411.0 L/h; Cmax [1, 8]: 735.46 ± 252.29 ng/mL; RE ([3]; Long-term, high level): 1.26%; RE ([3]; Short-term, low level): 4.81%; RE ([3]; freeze–thaw cycles, high level): 4.61%; RE ([3]; freeze–thaw cycles, low level): 7.62%; Mean recovery [3, 19]: 1307.7 ± 40.7 ng/mL; Mean recovery [3, 20]: 53.8 ± 2.7 ng/mL; Mean recovery [4, 21]: 1281.3 ± 44.2 ng/mL; Mean recovery [4, 22]: 47.6 ± 3.4 ng/mL; RE ([4]; high level): 5.00%; RE ([4]; low level): -9.55%"
"O=C(O)/C=C/c1ccccc1O [OCA, o-coumaric acid]",~180 min,231 ± 187 ng/mL,518 ± 299 ng·h/mL,465 ± 299 ng·h/mL,1.45 ± 0.84 h,0.87 ± 0.08,718.0 ± 48.0 ng/mL,-4.26%,22.6 ± 1.3 ng/mL,-9.44%,640.8 ± 45.6 ng/mL,22.8 ± 1.2 ng/mL,-14.55%,-8.89%,606.3 ± 26.8 ng/mL,22.5 ± 0.4 ng/mL,-10.20%,750.6 ± 29.0 ng/mL,25.2 ± 0.4 ng/mL,0.07%,"T1/2 [1, 8]: 3.50 ± 0.83 ^b h; RE ([3]; Short-term, low level): 0.79%; RE ([3]; freeze–thaw cycles, high level): -2.79%; RE ([3]; freeze–thaw cycles, low level): -8.32%; Mean recovery [3, 19]: 729.0 ± 41.7 ng/mL; Mean recovery [3, 20]: 22.9 ± 1.1 ng/mL; Mean recovery [4, 21]: 727.4 ± 34.5 ng/mL; Mean recovery [4, 22]: 22.7 ± 0.6 ng/mL; RE ([4]; high level): -3.01%; RE ([4]; low level): -2.32%"
